# Assay results reported in patent publication EP2776398B1, “SUBSTITUTED PYRAZOLYL-BASED UREA DERIVATIVES AS VANILLOID RECEPTOR LIGANDS” (Medifron DBT Inc., priority 2011, dated 2013).
# Target: T1, vanilloid receptor 1 (VR1/TRPV1 receptor) (Homo sapiens, UniProt Q8NER1)
# T1 construct: expressed in transfected cells; host or cells: CHO K1 cells (ECACC), stably transfected
# Test: Functional testing on vanilloid receptor 1: FLIPR Ca2+ influx assay against capsaicin (Cap) in transfected CHO K1 cells (pharmacological method II); on Ki: 100 nM capsaicin
# Assay type: cell-based
# Set-up: key to (f) Ki (human being) [nM] Cap: agonist classification: AG = agonist
# Details: for Ki: read-out: (f) Ki (human being) [nM] Cap; for (f) Ki (human being) [nM] Cap: agonist classification: human VR1 in CHO K1 cells, AG printed instead of a Ki
# Description: […]
# T1 sequence (Q8NER1 whole entry): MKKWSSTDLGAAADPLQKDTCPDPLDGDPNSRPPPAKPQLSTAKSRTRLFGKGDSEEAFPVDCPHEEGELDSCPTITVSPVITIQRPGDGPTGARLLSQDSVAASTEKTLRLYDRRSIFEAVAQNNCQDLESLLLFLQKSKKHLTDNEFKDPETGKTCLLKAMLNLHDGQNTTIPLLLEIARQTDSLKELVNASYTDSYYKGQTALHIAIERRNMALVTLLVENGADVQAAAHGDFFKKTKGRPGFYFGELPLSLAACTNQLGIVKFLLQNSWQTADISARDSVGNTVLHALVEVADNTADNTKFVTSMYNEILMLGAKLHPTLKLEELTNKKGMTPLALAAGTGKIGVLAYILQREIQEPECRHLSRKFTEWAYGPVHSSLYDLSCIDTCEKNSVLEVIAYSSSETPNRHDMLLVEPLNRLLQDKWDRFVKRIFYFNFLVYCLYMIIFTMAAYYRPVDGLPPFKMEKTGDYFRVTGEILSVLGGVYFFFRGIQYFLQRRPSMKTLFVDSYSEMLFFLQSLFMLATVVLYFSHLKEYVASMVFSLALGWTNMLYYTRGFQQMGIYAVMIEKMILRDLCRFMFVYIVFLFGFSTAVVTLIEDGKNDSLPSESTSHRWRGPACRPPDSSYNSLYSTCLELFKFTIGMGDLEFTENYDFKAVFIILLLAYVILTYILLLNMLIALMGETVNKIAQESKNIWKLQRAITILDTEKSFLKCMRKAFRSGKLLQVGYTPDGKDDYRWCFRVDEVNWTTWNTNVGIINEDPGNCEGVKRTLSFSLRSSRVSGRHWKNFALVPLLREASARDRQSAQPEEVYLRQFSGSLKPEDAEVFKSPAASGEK
Structure (SMILES),Ki,(f) Ki (human being) [nM] Cap: agonist classification
"C[C@@H](C(=O)NCc1cc(C(F)(F)F)nn1-c1cccc(Cl)c1)c1ccc(CO)c(F)c1 [A35, (2R)-N-[[2-(3-Chlorophenyl)-5-(trifluoromethyl)-2H-pyrazol-3-yl]-methyl]-2-[3-fluoro-4-(hydroxymethyl)-phenyl]-propionamide]",1 nM,
"CC(C(=O)NCc1cc(C(C)(C)C)nn1-c1cccc(F)c1)c1ccc(CO)c(F)c1 (stereo not drawn) [A37, N-[[5-tert-Butyl-2-(3-fluorophenyl)-2H-pyrazol-3-yl]-methyl]-2-[3-fluoro-4-(hydroxymethyl)-phenyl]-propionamide]",,AG
"CC(C(=O)NCc1cc(C(F)(F)F)nn1-c1cccc(F)c1)c1ccc(CO)c(F)c1 (stereo not drawn) [A38, 2-[3-Fluoro-4-(hydroxymethyl)-phenyl]-N-[[2-(3-fluorophenyl)-5-(trifluoromethyl)-2H-pyrazol-3-yl]-methyl]-propionamide]",11 nM,
"CC(C(=O)NCc1cc(C(C)(C)C)nn1-c1ccc(F)c(F)c1)c1ccc(CO)c(F)c1 (stereo not drawn) [A39, N-[[5-tert-Butyl-2-(3,4-difluoro-phenyl)-2H-pyrazol-3-yl]-methyl]-2-[3-fluoro-4-(hydroxymethyl)-phenyl]-propionamide]",,AG
"CC(C(=O)NCc1cc(C(F)(F)F)nn1-c1ccc(F)c(F)c1)c1ccc(CO)c(F)c1 (stereo not drawn) [A40, N-[[2-(3,4-Difluoro-phenyl)-5-(trifluoromethyl)-2H-pyrazol-3-yl]-methyl]-2-[3-fluoro-4-(hydroxymethyl)-phenyl]-propionamide]",27 nM,
"CC(C(=O)NCc1cc(C(C)(C)C)nn1-c1ccc(F)c(Cl)c1)c1ccc(CO)c(F)c1 (stereo not drawn) [A41, N-[[5-tert-Butyl-2-(3-chloro-4-fluoro-phenyl)-2H-pyrazol-3-yl]-methyl]-2-[3-fluoro-4-(hydroxymethyl)-phenyl]-propionamide]",,AG
"CC(C(=O)NCc1cc(C(F)(F)F)nn1-c1ccc(F)c(Cl)c1)c1ccc(CO)c(F)c1 (stereo not drawn) [A42, N-[[2-(3-Chloro-4-fluoro-phenyl)-5-(trifluoromethyl)-2H-pyrazol-3-yl]-methyl]-2-[3-fluoro-4-(hydroxymethyl)-phenyl]-propionamide]",3 nM,
"COc1cccc(-n2nc(C(F)(F)F)cc2CNC(=O)C(C)c2ccc(CO)c(F)c2)c1 (stereo not drawn) [A43, 2-[3-Fluoro-4-(hydroxymethyl)-phenyl]-N-[[2-(3-methoxyphenyl)-5-(trifluoromethyl)-2H-pyrazol-3-yl]-methyl]-propionamide]",21 nM,
"CC(C)c1cccc(-n2nc(C(F)(F)F)cc2CNC(=O)C(C)c2ccc(CO)c(F)c2)c1 (stereo not drawn) [A44, 2-[3-Fluoro-4-(hydroxymethyl)-phenyl]-N-[[2-(3-isopropyl-phenyl)-5-(trifluoromethyl)-2H-pyrazol-3-yl]-methyl]-propionamide]",0.2 nM,
"CC(C(=O)NCc1cc(C(C)(C)C)nn1-c1ccc(F)cc1)c1ccc(CO)c(F)c1 (stereo not drawn) [A45, N-[[5-tert-Butyl-2-(4-fluorophenyl)-2H-pyrazol-3-yl]-methyl]-2-[3-fluoro-4-(hydroxymethyl)-phenyl]-propionamide]",1 nM,
"CC(C(=O)NCc1cc(C(F)(F)F)nn1-c1ccc(F)cc1)c1ccc(CO)c(F)c1 (stereo not drawn) [A46, 2-[3-Fluoro-4-(hydroxymethyl)-phenyl]-N-[[2-(4-fluorophenyl)-5-(trifluoromethyl)-2H-pyrazol-3-yl]-methyl]-propionamide]",46 nM,
"CC(C(=O)NCc1cc(C(C)(C)C)nn1-c1cccc(C(F)(F)F)c1)c1ccc(CO)c(F)c1 (stereo not drawn) [A47, N-[[5-tert-Butyl-2-[3-(trifluoromethyl)phenyl]-2H-pyrazol-3-yl]-methyl]-2-[3-fluoro-4-(hydroxymethyl)-phenyl]-propionamide]",,AG
"CC(C(=O)NCc1cc(C(F)(F)F)nn1-c1cccc(C(F)(F)F)c1)c1ccc(CO)c(F)c1 (stereo not drawn) [A48, 2-[3-Fluoro-4-(hydroxymethyl)-phenyl]-N-[[5-(trifluoromethyl)-2-[3-(trifluoromethyl)phenyl]-2H-pyrazol-3-yl]-methyl]-propionamide]",,AG
"COc1cc(C(C)C(=O)NCc2cc(C(C)(C)C)nn2-c2cccc(Cl)c2)ccc1CO (stereo not drawn) [A49, N-[[5-tert-Butyl-2-(3-chlorophenyl)-2H-pyrazol-3-yl]-methyl]-2-[4-(hydroxymethyl)-3-methoxy-phenyl]-propionamide]",,AG
"COc1cc(C(C)C(=O)NCc2cc(C(F)(F)F)nn2-c2cccc(Cl)c2)ccc1CO (stereo not drawn) [A50, N-[[2-(3-Chlorophenyl)-5-(trifluoromethyl)-2H-pyrazol-3-yl]-methyl]-2-[4-(hydroxymethyl)-3-methoxy-phenyl]-propionamide]",1 nM,
"CC(C(=O)NCc1cc(C(C)(C)C)nn1-c1cccc(Cl)c1)c1ccc(CO)c(Cl)c1 (stereo not drawn) [A51, N-[[5-tert-Butyl-2-(3-chlorophenyl)-2H-pyrazol-3-yl]-methyl]-2-[3-chloro-4-(hydroxymethyl)-phenyl]-propionamide]",,AG
"CC(C(=O)NCc1cc(C(F)(F)F)nn1-c1cccc(Cl)c1)c1cc(F)c(CO)c(F)c1 (stereo not drawn) [A52, N-[[2-(3-Chlorophenyl)-5-(trifluoromethyl)-2H-pyrazol-3-yl]-methyl]-2-[3,5-difluoro-4-(hydroxymethyl)-phenyl]-propionamide]",140 nM,
"O=C(NCc1cc(C2CC2)nn1-c1cccc(Cl)c1)Nc1ccc(CO)c(F)c1 [A53, 1-[[2-(3-Chlorophenyl)-5-cyclopropyl-2H-pyrazol-3-yl]-methyl]-3-[3-fluoro-4-(hydroxymethyl)-phenyl]-urea]",18 nM,
"CC(C)(C)c1cc(CNC(=O)Nc2ccc(CO)c(F)c2)n(-c2cccc(F)c2)n1 [A54, 1-[[5-tert-Butyl-2-(3-fluorophenyl)-2H-pyrazol-3-yl]-methyl]-3-[3-fluoro-4-(hydroxymethyl)-phenyl]-urea]",6 nM,
"CC(C)(C)c1cc(CNC(=O)Nc2ccc(CO)c(F)c2)n(-c2cccc(Cl)c2)n1 [A55, 1-[[5-tert-Butyl-2-(3-chlorophenyl)-2H-pyrazol-3-yl]-methyl]-3-[3-fluoro-4-(hydroxymethyl)-phenyl]-urea]",3 nM,
"Cc1cccc(-n2nc(C(C)(C)C)cc2CNC(=O)Nc2ccc(CO)c(F)c2)c1 [A56, 1-[[5-tert-Butyl-2-(m-tolyl)-2H-pyrazol-3-yl]-methyl]-3-[3-fluoro-4-(hydroxymethyl)-phenyl]-urea]",2 nM,
"CC(C)(C)c1cc(CNC(=O)Nc2ccc(CO)c(F)c2)n(-c2ccc(F)c(F)c2)n1 [A57, 1-[[5-tert-Butyl-2-(3,4-difluoro-phenyl)-2H-pyrazol-3-yl]-methyl]-3-[3-fluoro-4-(hydroxymethyl)-phenyl]-urea]",2 nM,
"O=C(NCc1cc(C(F)(F)F)nn1-c1ccccc1)Nc1ccc(CO)c(F)c1 [A58, 1-[3-Fluoro-4-(hydroxymethyl)-phenyl]-3-[[2-phenyl-5-(trifluoromethyl)-2H-pyrazol-3-yl]-methyl]-urea]",6 nM,
"O=C(NCc1cc(C(F)(F)F)nn1-c1cccc(Cl)c1)Nc1ccc(CO)c(F)c1 [A59, 1-[[2-(3-Chlorophenyl)-5-(trifluoromethyl)-2H-pyrazol-3-yl]-methyl]-3-[3-fluoro-4-(hydroxymethyl)-phenyl]-urea]",7 nM,
